Measured values published in article PMC8419995, “In vitro and in vivo efficacy of thiacloprid against Echinococcus multilocularis” (Parasites & Vectors, 2021).
Like-named read-outs stand apart in the source and are kept apart here.

Experiments:
[1] = design: method as in PMID 32229153; conditions: mice; cited from earlier work
[2] = test system: collagen I and III, MMP1, MMP3, MMP9, MMP13; test: Collagen and MMP expression in the host-lesion microenvironment (TEM, Sirius red, qPCR, western blot); assay type: in vivo; conditions: infected BALB/c mice, 6 weeks oral treatment
Experimental: The metacestodes were fixed with 4% paraformaldehyde and embedded in paraffin to make sections with a thickness of […]. The sections were dewaxed with water, stained with Picrosirius red for 10 min, rinsed and dehydrated with anhydrous ethanol, and sealed with neutral balsam after the xylene was transparent. Each section of 400× visual field image was randomly collected. The ratio of the area of all images collected to the area of the visual field was measured using the ImageJ analysis system, and the percentage of collagen fibre was calculated.
The variations in the microstructure of the protoscoleces or metacestodes were observed under an electron microscope. […] They were washed twice in PBS and then fixed for 3 h with 2.5% glutaraldehyde (pH = 7.2); next, they underwent 2 h post-fixation in 2% OsO4 (SPI-CHEM, West Chester, PA, USA). Subsequently, the samples were washed in double-distilled water and treated with 1% uranyl acetate for 25 min. After the samples were washed again in double-distilled water, dehydration was conducted in ethanol at continuous gradients (30–50–70–80–90–95–100%) over a period of 10 min. For SEM analysis, the dehydrated samples were dipped into hexamethyldisiloxane and then air-dried in a fume hood. The sample was observed under a Hitachi SU8100 scanning electron microscope (Tokyo, Japan) after gold spraying. For TEM analysis, the dehydrated samples passed through a dehydrating agent, and an epoxy resin (SPI-CHEM) permeated and polymerized at 60 °C overnight. A 50-nm ultra-thin section was prepared and then loaded on a 300-mesh copper grid. It was stained with uranyl acetate and lead citrate (SPI-CHEM). The sample was observed under a Hitachi HT7700 transmission electron microscope. To reduce the bias, electron microscopy was observed by professionals in the case of an unknown group.
Total RNA was extracted with TRIzol Reagent (Thermo Fisher Scientific, Waltham, MA, USA) according to the manufacturer’s instructions. The purity and concentrations of RNA were quantified using NanoDrop 2000 absorbance measurements at 260/280 nm. Total RNA was converted into cDNA sequences using the FastKing gDNA Dispelling RT SuperMix Kit (TIANGEN Biotech), and RT-qPCR was performed using the RealUniversal Color PreMix Kit (TIANGEN Biotech) on an ABI QuantStudio 5 system (Applied Biosystems, Waltham, MA, USA). The specific primers are shown in Additional file 4: Table S1. The PCR cycling conditions were as follows: pre-denaturation at 95 °C for 15 min followed by 40 cycles at 95 °C for 10 s and 60 °C for 34 s. The relative mRNA expression levels were quantified using the 2^−ΔΔCT method. RPS18 served as an internal control.
A total protein extraction kit (Solarbio) was used to extract cell or tissue total protein. The protein concentration was determined by the protein quantitative assay kit (Thermo Fisher Scientific). Then, electrophoresis was performed with 20–50 μg of protein sample. The protein was separated by sodium dodecyl sulfate polyacrylamide gel electrophoresis (SDS-PAGE) and transferred to a 0.22 μm PVDF membrane (Merck Millipore, Darmstadt, Germany). The PVDF membrane was blocked with 5% of nonfat powdered milk in Tris-buffered saline Tween 20 (TBST) for 1 h at room temperature. The membrane incubation with primary antibodies was performed at 4 °C overnight. The antibody information is listed in Additional file 5: Table S2. The membrane was washed with TBST and incubated with HRP-labeled secondary antibodies (1:5000, Abclonal, Wuhan, China) for 1 h at room temperature. Blotted membranes were visualized using enhanced chemiluminescence reagents (Thermo Fisher Scientific). Protein expression was depicted as the intensity of each protein relative to that of β-actin using ImageJ software.

[3] = test system: E. multilocularis metacestodes; test: Morphology of in vitro treated metacestode vesicles (light microscope, SEM, TEM); assay type: cell-based, Echinococcus multilocularis; conditions: 5 μM, 5 days
Experimental: The variations in the microstructure of the protoscoleces or metacestodes were observed under an electron microscope. In vitro-cultured E. multilocularis protoscoleces and metacestodes were treated with thiacloprid at 0 and 5 μM for 5 days at 37 °C and 5% CO2. They were washed twice in PBS and then fixed for 3 h with 2.5% glutaraldehyde (pH = 7.2); next, they underwent 2 h post-fixation in 2% OsO4 (SPI-CHEM, West Chester, PA, USA). Subsequently, the samples were washed in double-distilled water and treated with 1% uranyl acetate for 25 min. After the samples were washed again in double-distilled water, dehydration was conducted in ethanol at continuous gradients (30–50–70–80–90–95–100%) over a period of 10 min. For SEM analysis, the dehydrated samples were dipped into hexamethyldisiloxane and then air-dried in a fume hood. The sample was observed under a Hitachi SU8100 scanning electron microscope (Tokyo, Japan) after gold spraying. For TEM analysis, the dehydrated samples passed through a dehydrating agent, and an epoxy resin (SPI-CHEM) permeated and polymerized at 60 °C overnight. A 50-nm ultra-thin section was prepared and then loaded on a 300-mesh copper grid. It was stained with uranyl acetate and lead citrate (SPI-CHEM). The sample was observed under a Hitachi HT7700 transmission electron microscope. […]

[4] = test system: Human foreskin fibroblasts (HFF); test: alamarBlue cytotoxicity assay, HFF; assay type: cell-based; conditions: Fibroblast, 120 h, 5 days
Experimental: An alamarBlue assay was used to assess the toxicity of thiacloprid to confluent and pre-confluent mammalian cells in vitro [29]. Human foreskin fibroblasts (HFF, Procell) and rat hepatoma cells (RH, Procell) were seeded into 96-well cell culture plates in DMEM supplemented with 10% FBS and 1% penicillin–streptomycin at 37 °C and 5% CO2. For detecting the growth inhibitory effects of confluent cells, HFF and RH cells were seeded at 10,000 cells per well and 50,000 cells per well, respectively. After overnight culture, thiacloprid or PZQ was added and diluted in serial concentrations (0, 0.6, 1.2, 2.5, 5, 10, 20, 40, 80 and 160 μM). For detecting growth inhibitory effects on proliferating cells, cells were seeded at 1000 (HFF) and 5000 (RH) cells per well. Thiacloprid was added after 5 h of cell attachment. To measure the viability of the cells after treatment for 5 days, the alamarBlue assay was employed and viability calculated as described previously.

For `N#C/N=C1\SCCN1Cc1ccc(Cl)nc1` [thiacloprid], the “Dose that induced obvious hepatocellular hypertrophy and cytoplasm degeneration” value [1] is given as “more than 108 mg/kg”, the “Collagen fiber deposition in the host-lesion microenvironment (TEM)” value [2] is given as “can promote” and the “mRNA expression of MMP1, MMP3, MMP9 and MMP13 in the microenvironment” value ([2]; qPCR) is given as “significantly inhibited”. For the same molecule, the “mRNA and protein expression levels of collagen I and III in the host-lesion microenvironment” value ([2]; qPCR, western blot) was “increased”, the “Protein expression levels of MMP1, MMP3, MMP9 and MMP13” value ([2]; western blot) was “decreased” and the “Morphological alterations of metacestode vesicles under a light microscope” value [3] was “contraction and collapse”. For the same molecule, the “TEM of metacestode vesicles” value [3] was “obvious ultrastructural damage”, the IC50 ([4]; confluent cells, read-out: IC50 on confluent HFF) was 68.7 ± 9.71 µM and the IC50 ([4]; pre-confluent cells, read-out: IC50 on pre-confluent HFF) was 64.8 ± 5.79 µM.
